Measured values: patent US10766928B2, “Targeted conformationally-constrained kinked endosomal disrupting peptides” (priority 2012, dated 2020)
≈ marks a conversion by molar mass, not a printed value. Where two headings read alike, the source gives them in different places. Non-standard residues stand in square brackets, D forms with d. Residues, ends and D or L forms follow the SMILES beside them. *: point of attachment. Pentanoyl(5-NH-cholesteryl) = CC(C)CCC[C@@H](C)[C@H]1CC[C@H]2[C@@H]3CC=C4C[C@@H](NCCCCC(=O)*)CC[C@]4(C)[C@H]3CC[C@]12C; Cholesteryloxycarbonyl = CC(C)CCC[C@@H](C)[C@H]1CC[C@H]2[C@@H]3CC=C4C[C@@H](OC(=O)*)CC[C@]4(C)[C@H]3CC[C@]12C; PEG3 = NCCOCCOCCOCCC(=O)O; Aib = CC(C)(N)C(=O)O; Ahx = NCCCCCC(=O)O; βAla = NCCC(=O)O

How the values were obtained:
[1] = test system: endosomes of Jurkat lymphocytes; experiment: Endosome disruption in Jurkat lymphocytes: release of carboxyfluorescein from disulfide probe Compound 2, flow cytometry; details: for Efficacy (% of max. 1): % change in cellular fluorescence relative to maximal response of Compound 1 (100%); for Efficacy (% of max. 1) / Efficacy (% of 1): Jurkat; for Efficacy (% of 1): % of the effect of compound 1, calculated span of dose-response curve, ± standard deviation; for Endosome disruption activity (in words): Jurkat endosome disruption assay
Method: The effects of the compounds of the invention on human Juikat leukemia cells were evaluated using flow cytometry-based assays of potency, efficacy, and toxicity. […] Analysis of flow cytometry data by non-linear regression was used to determine IC50 values for potency with the efficacy expressed as a percentage. […] Dose-dependent effects on cellular viability after 48 h at 37° C. in culture were also measured by flow cytometry.
The # represents the compound number in accordance with Tables A, B, and C. Concentrations of compound stock solutions were determined by absorbance measurements at 280 nm. Efficacy was determined as % change in cellular fluorescence relative to the maximal response of Compound 1, defined as 100%. Potencies and efficacies in Jurkat lymphocytes were measured by flow cytometry after treatment of cells with the compounds listed and the fluorescent probe Compound 2 (2.5 μM) for 14 hours. Toxicity to this cell line was determined by flow cytometry analysis of light scattering and counterstaining with PI after treatment for 48 h at 37° C. in culture. […] N.D., not determined.
Cells were treated with fluorescent molecular probe Compound 2 (2.5 μM) and endosome disruptors for 14 hours at 37° C. Enhanced cellular fluorescence resulting from release of the pH-sensitive fluorophore Compound 3 into the cytoplasm was quantified by flow cytometry.
Natural amino acids are represented by single letter codes. Codes for non-standard elements are as follows: Ch1: (3β-Cholest-5-en-3-yl-ammonio)pentanoyl; Ch2: (Cholester-3-yl)oxy-βAla-βAla; X: ε-Ahx; U: Aib; PB: Pacific Blue fluorophore. O: 3-(2-(2-(2-aminoethoxy)ethoxy)ethoxy)propanyl.

[2] = Thermodynamic solubility in PBS (pH 7.4); type: physicochemical; details: phosphate buffered saline
Text: Values in parentheses represent 95% confidence intervals. N.D., not determined.
Measurements represent duplicate or more replicates, with active peptides subjected to multiple replicates. ND: not determined. The peptide was non-toxic and soluble in cell culture medium at this concentration.

[3] = pH 7.4, Table 3, PBS pH 7.4, 24 h at 22° C., read-out: Solubility
[4] = read-out: Potency, Table 2, EC50 ± standard deviation, Jurkat lymphocytes, disulfide-linked fluorescent probe (2.5 μM), 14 h

Compound | EC50 ([1]; 14 h) [µM] | Efficacy (% of max. 1) ([1]; Table 1, 14 hours) | Efficacy (% of 1) ([1]; Table 2, 14 h) [%] | solubility thermodynamic at 24 h [2, 3] [µM] | other results
CC(C)CCC[C@@H](C)[C@H]1CC[C@H]2[C@@H]3CC=C4C[C@@H](NCCCCC(=O)NCCC(=O)N[C@@H](CCC(=O)O)C(=O)N[C@@H](CCC(=O)O)C(=O)NCCCCCC(=O)NC(C)(C)C(=O)NC(C)(C)C(=O)NC(C)(C)C(=O)N[C@@H](Cc5c[nH]c6ccccc56)C(=O)N[C@@H](Cc5c[nH]c6ccccc56)C(=O)N[C@@H](C)C(=O)N[C@@H](C)C(=O)N[C@@H](Cc5c[nH]c6ccccc56)C(=O)N5CCC[C@H]5C(=O)N5CCC[C@H]5C(=O)N[C@H](C(=O)N[C@@H](C)C(N)=O)C(C)C)CC[C@]4(C)[C@H]3CC[C@]12C [Compound 14, R = BEEXUUUWWAAWPPVA-CONH2] ({Pentanoyl(5-NH-cholesteryl)-βAla}-EE[Ahx][Aib][Aib][Aib]WWAAWPPVA-NH2) | 1.2 |  |  |  | 
CC(C)[C@H](NC(=O)[C@@H](NC(=O)[C@@H]1CCCN1C(=O)[C@@H]1CCCN1C(=O)[C@H](C)NC(=O)[C@H](Cc1ccc(O)cc1)NC(=O)[C@H](C)NC(=O)[C@H](Cc1c[nH]c2ccccc12)NC(=O)[C@H](Cc1c[nH]c2ccccc12)NC(=O)C(C)(C)NC(=O)C(C)(C)NC(=O)C(C)(C)NC(=O)C(C)(C)N)C(C)C)C(N)=O [Compound 48] (H-[Aib][Aib][Aib][Aib]WWAYAPPVV-NH2) |  | <<50% | <10 | 86 ± 5 (≈ 123 µg/mL) | 
CC(C)CCC[C@@H](C)[C@H]1CC[C@H]2[C@@H]3CC=C4C[C@@H](NCCCCC(=O)NCCC(=O)N[C@@H](CCC(=O)O)C(=O)N[C@@H](CCC(=O)O)C(=O)NCCCCCC(=O)NCCCCCC(=O)NC(C)(C)C(=O)NC(C)(C)C(=O)NC(C)(C)C(=O)NC(C)(C)C(=O)N[C@@H](Cc5ccccc5)C(=O)N[C@@H](Cc5ccccc5)C(=O)N[C@@H](C)C(=O)N[C@@H](Cc5ccccc5)C(=O)N[C@@H](Cc5ccccc5)C(=O)N5CCC[C@H]5C(=O)N5CCC[C@H]5C(=O)N[C@H](C(=O)N[C@@H](C)C(N)=O)C(C)C)CC[C@]4(C)[C@H]3CC[C@]12C [Compound 22, R = BEEXXUUUUFFAFFPPVA-CONH2] ({Pentanoyl(5-NH-cholesteryl)-βAla}-EE[Ahx][Ahx][Aib][Aib][Aib][Aib]FFAFFPPVA-NH2) | > 10 |  |  |  | 
Ac-SSAWWSYWPPVA-NH2 [Compound 39, reference compound] |  | <<50% | <2 | 137 ± 8 | Endosome disruption activity (in words) [1]: devoid of biological activity; solubility thermodynamic at 24 h ([2]; pH 7.4, Table 1, PBS pH 7.4, 24 hours at 22° C., ±S.D., read-out: Solubility (aq.)): 173 ± 11 µM
CC(C)[C@H](NC(=O)[C@@H](NC(=O)[C@H](C)NC(=O)[C@@H]1CCCN1C(=O)[C@H](Cc1c[nH]c2ccccc12)NC(=O)[C@H](Cc1ccc(O)cc1)NC(=O)[C@H](C)NC(=O)[C@H](Cc1c[nH]c2ccccc12)NC(=O)[C@H](Cc1c[nH]c2ccccc12)NC(=O)C(C)(C)NC(=O)C(C)(C)NC(=O)C(C)(C)NC(=O)C(C)(C)N)C(C)C)C(N)=O [Compound 50] (H-[Aib][Aib][Aib][Aib]WWAYWPAVV-NH2) |  | 71% | 54 ± 3 | 22 ± 2 (≈ 33.4 µg/mL) | Endosome disruption activity (in words) [1]: substantial activity; EC50 [1, 4]: 9 ± 3 µM
CC(C)[C@H](NC(=O)[C@@H](NC(=O)[C@@H]1CCCN1C(=O)[C@@H]1CCCN1C(=O)[C@H](Cc1ccc(O)cc1)NC(=O)[C@H](Cc1ccc(O)cc1)NC(=O)[C@H](C)NC(=O)[C@H](Cc1ccc(O)cc1)NC(=O)[C@H](Cc1ccc(O)cc1)NC(=O)[C@H](C)NC(=O)[C@H](Cc1ccc(O)cc1)NC(=O)[C@H](Cc1ccc(O)cc1)NC(=O)C(C)(C)NC(=O)C(C)(C)NC(=O)C(C)(C)NC(=O)C(C)(C)N)C(C)C)C(N)=O [Compound 85] (H-[Aib][Aib][Aib][Aib]YYAYYAYYPPVV-NH2) |  |  | >125 |  | EC50 [1, 4]: 4 ± 1 µM
Ac-AAAWWAYWPPVA-NH2 [Compound 40] |  | <<50% |  | 41 ± 2 | EC50 [1, 4]: > 15 µM
Ch1-EEOOUUUUYYYYPPVV-NH2 [Compound 86] |  |  | 125 ± 10 |  | EC50 [1, 4]: 0.08 ± 0.01 µM
CC(C)CCC[C@@H](C)[C@H]1CC[C@H]2[C@@H]3CC=C4C[C@@H](NCCCCC(=O)NCCC(=O)N[C@@H](CCC(=O)O)C(=O)N[C@@H](CCC(=O)O)C(=O)NCCCCCC(=O)NC(C)(C)C(=O)NC(C)(C)C(=O)NC(C)(C)C(=O)N[C@@H](Cc5c[nH]c6ccccc56)C(=O)N[C@@H](Cc5c[nH]c6ccccc56)C(=O)N[C@@H](C)C(=O)N[C@@H](Cc5ccc(O)cc5)C(=O)N[C@@H](Cc5c[nH]c6ccccc56)C(=O)N[C@@H](C)C(=O)N5CCC[C@H]5C(=O)N[C@H](C(=O)N[C@@H](C)C(N)=O)C(C)C)CC[C@]4(C)[C@H]3CC[C@]12C [Compound 16, R = BEEXUUUWWAYWAPVA-CONH2] ({Pentanoyl(5-NH-cholesteryl)-βAla}-EE[Ahx][Aib][Aib][Aib]WWAYWAPVA-NH2) | 1.6 |  |  |  | 
CC(C)CCC[C@@H](C)[C@H]1CC[C@H]2[C@@H]3CC=C4C[C@@H](NCCCCC(=O)NCCC(=O)N[C@@H](CCC(=O)O)C(=O)N[C@@H](CCC(=O)O)C(=O)NCCCCCC(=O)N[C@@H](CO)C(=O)N[C@@H](CO)C(=O)N[C@@H](C)C(=O)N[C@@H](Cc5c[nH]c6ccccc56)C(=O)N[C@@H](Cc5c[nH]c6ccccc56)C(=O)N[C@@H](CO)C(=O)N[C@@H](Cc5ccc(O)cc5)C(=O)N[C@@H](Cc5c[nH]c6ccccc56)C(=O)N5CCC[C@H]5C(=O)N5CCC[C@H]5C(=O)N[C@H](C(=O)N[C@@H](C)C(N)=O)C(C)C)CC[C@]4(C)[C@H]3CC[C@]12C [Compound 6, R = BEEXSSAWWSYWPPVA-CONH2] ({Pentanoyl(5-NH-cholesteryl)-βAla}-EE[Ahx]SSAWWSYWPPVA-NH2) | 3.5 |  |  |  | 
CC(C)[C@H](NC(=O)[C@@H](NC(=O)[C@@H]1CCCN1C(=O)[C@@H]1CCCN1C(=O)[C@H](Cc1c[nH]c2ccccc12)NC(=O)[C@H](Cc1ccc(O)cc1)NC(=O)[C@H](C)NC(=O)[C@H](C)NC(=O)[C@H](Cc1c[nH]c2ccccc12)NC(=O)C(C)(C)NC(=O)C(C)(C)NC(=O)C(C)(C)NC(=O)C(C)(C)N)C(C)C)C(N)=O [Compound 46] (H-[Aib][Aib][Aib][Aib]WAAYWPPVV-NH2) |  | <<50% | <10 | 86 ± 5 (≈ 123 µg/mL) | 
CC(C)[C@H](NC(=O)[C@@H](NC(=O)[C@@H]1CCCN1C(=O)[C@H](C)NC(=O)[C@H](Cc1c[nH]c2ccccc12)NC(=O)[C@H](Cc1ccc(O)cc1)NC(=O)[C@H](C)NC(=O)[C@H](Cc1c[nH]c2ccccc12)NC(=O)[C@H](Cc1c[nH]c2ccccc12)NC(=O)C(C)(C)NC(=O)C(C)(C)NC(=O)C(C)(C)NC(=O)C(C)(C)N)C(C)C)C(N)=O [Compound 49] (H-[Aib][Aib][Aib][Aib]WWAYWAPVV-NH2) |  | 45% | 35 ± 2 | 21 ± 2 (≈ 31.9 µg/mL) | EC50 ([1]; read-out: Potency (EC50), Table 1, Jurkat lymphocytes, probe Compound 2 (2.5 μM), 14 hours, 95% confidence interval in neighbouring cell): 12 µM
CC(C)CCC[C@@H](C)[C@H]1CC[C@H]2[C@@H]3CC=C4C[C@@H](OC(=O)NCCC(=O)NCCC(=O)N[C@@H](CCC(=O)O)C(=O)N[C@@H](CCC(=O)O)C(=O)NCCOCCOCCOCCC(=O)NCCOCCOCCOCCC(=O)NC(C)(C)C(=O)NC(C)(C)C(=O)NC(C)(C)C(=O)NC(C)(C)C(=O)N[C@@H](Cc5c[nH]c6ccccc56)C(=O)N[C@@H](Cc5ccc(O)cc5)C(=O)N[C@@H](C)C(=O)N[C@@H](Cc5c[nH]c6ccccc56)C(=O)N[C@@H](Cc5ccc(O)cc5)C(=O)N[C@@H](C)C(=O)N[C@@H](Cc5c[nH]c6ccccc56)C(=O)N[C@@H](Cc5ccc(O)cc5)C(=O)N5CCC[C@H]5C(=O)N5CCC[C@H]5C(=O)N[C@H](C(=O)N[C@H](C(N)=O)C(C)C)C(C)C)CC[C@]4(C)[C@H]3CC[C@]12C [Compound 84, Ch2-EEOOUUUUWYAWYAWYPPVV-NH2] ({Cholesteryloxycarbonyl-βAla-βAla}-EE[PEG3][PEG3][Aib][Aib][Aib][Aib]WYAWYAWYPPVV-NH2) |  |  |  | 21 ± 1 (≈ 66.4 µg/mL) | 
CC(C)CCC[C@@H](C)[C@H]1CC[C@H]2[C@@H]3CC=C4C[C@@H](NCCCCC(=O)NCCC(=O)N[C@@H](CCC(=O)O)C(=O)N[C@@H](CCC(=O)O)C(=O)NCCCCCC(=O)NC(C)(C)C(=O)NC(C)(C)C(=O)NC(C)(C)C(=O)N[C@@H](Cc5c[nH]c6ccccc56)C(=O)N[C@@H](Cc5c[nH]c6ccccc56)C(=O)N[C@@H](C)C(=O)N[C@@H](Cc5ccc(O)cc5)C(=O)N[C@@H](Cc5c[nH]c6ccccc56)C(=O)N5CCC[C@H]5C(=O)N[C@@H](C)C(=O)N[C@H](C(=O)N[C@@H](C)C(N)=O)C(C)C)CC[C@]4(C)[C@H]3CC[C@]12C [Compound 17, R = BEEXUUUWWAYWPAVA-CONH2] ({Pentanoyl(5-NH-cholesteryl)-βAla}-EE[Ahx][Aib][Aib][Aib]WWAYWPAVA-NH2) | 2.1 |  |  |  | 
